Tested on: not listed separately
Assay: Antiproliferative activity against human HCT116 cells assessed as cell growth at 10^-8 M after 48 hrs by sulforhodamine B assay
Format: functional
Conditions: HCT-116, 48 h, read-out: Activity

| Structure (SMILES) | growth at 0.01 µM [%] |
| --- | --- |
| CNC(=O)c1cc(Oc2ccc3nc(NC(=O)Nc4ccc(Cl)c(C(F)(F)F)c4)sc3c2)ccn1 | 101 |

Tested on: T47D
Assay: Antiproliferative activity against human T47D cells assessed as growth inhibition after 48 hrs by sulforhodamine B assay
Format: functional
Conditions: not given

| Structure (SMILES) | GI50 [µM] | TGI [µM] |
| --- | --- | --- |
| CNC(=O)c1cc(Oc2ccc3nc(NC(=O)Nc4ccc(Cl)c(C(F)(F)F)c4)sc3c2)ccn1 | 0.723 | 3.65 |

Same assay, conditions: read-out: LC50 (the source's name)

| Structure (SMILES) | CC50 [µM] |
| --- | --- |
| CNC(=O)c1cc(Oc2ccc3nc(NC(=O)Nc4ccc(Cl)c(C(F)(F)F)c4)sc3c2)ccn1 | > 100 |

Tested on: NCI-H522
Assay: Antiproliferative activity against human NCI-H522 cells assessed as cell growth at 10^-6 M after 48 hrs by sulforhodamine B assay
Format: functional
Conditions: NCI-H522, 48 h, read-out: Activity

| Structure (SMILES) | growth at 1 µM [%] |
| --- | --- |
| CNC(=O)c1cc(Oc2ccc3nc(NC(=O)Nc4ccc(Cl)c(C(F)(F)F)c4)sc3c2)ccn1 | 80 |

Tested on: T47D
Assay: Antiproliferative activity against human T47D cells assessed as cell growth at 10^-8 M after 48 hrs by sulforhodamine B assay
Format: functional
Conditions: read-out: Activity

| Structure (SMILES) | growth at 0.01 µM [%] |
| --- | --- |
| CNC(=O)c1cc(Oc2ccc3nc(NC(=O)Nc4ccc(Cl)c(C(F)(F)F)c4)sc3c2)ccn1 | 90 |

Tested on: K562
Assay: Antiproliferative activity against human K562 cells assessed as cell growth at 10^-7 M after 48 hrs by sulforhodamine B assay
Format: functional
Conditions: K562, 48 h, read-out: Activity

| Structure (SMILES) | growth at 0.1 µM [%] |
| --- | --- |
| CNC(=O)c1cc(Oc2ccc3nc(NC(=O)Nc4ccc(Cl)c(C(F)(F)F)c4)sc3c2)ccn1 | 104 |

Tested on: SK-MEL-28
Assay: Antiproliferative activity against human SK-MEL-28 cells assessed as cell growth at 10^-4 M after 48 hrs by sulforhodamine B assay
Format: functional
Conditions: SK-MEL-28, 48 h, read-out: Activity

| Structure (SMILES) | growth at 100 µM [%] |
| --- | --- |
| CNC(=O)c1cc(Oc2ccc3nc(NC(=O)Nc4ccc(Cl)c(C(F)(F)F)c4)sc3c2)ccn1 | 38 |

Tested on: not listed separately
Assay: Antiproliferative activity against human HCC2998 cells assessed as growth inhibition after 48 hrs by sulforhodamine B assay
Format: functional
Conditions: HCC 2998, 48 h

| Structure (SMILES) | TGI [µM] |
| --- | --- |
| CNC(=O)c1cc(Oc2ccc3nc(NC(=O)Nc4ccc(Cl)c(C(F)(F)F)c4)sc3c2)ccn1 | > 100 |

Same assay, conditions: HCC 2998, 48 h, read-out: LC50 (the source's name)

| Structure (SMILES) | CC50 [µM] |
| --- | --- |
| CNC(=O)c1cc(Oc2ccc3nc(NC(=O)Nc4ccc(Cl)c(C(F)(F)F)c4)sc3c2)ccn1 | > 100 |

Tested on: HT-29
Assay: Antiproliferative activity against human HT-29 cells assessed as cell growth at 10^-8 M after 48 hrs by sulforhodamine B assay
Format: functional
Conditions: HT-29, 48 h, read-out: Activity

| Structure (SMILES) | growth at 0.01 µM [%] |
| --- | --- |
| CNC(=O)c1cc(Oc2ccc3nc(NC(=O)Nc4ccc(Cl)c(C(F)(F)F)c4)sc3c2)ccn1 | 99 |

Tested on: not listed separately
Assay: Antiproliferative activity against human OVCAR5 cells assessed as cell growth at 10^-7 M after 48 hrs by sulforhodamine B assay
Format: functional
Conditions: OVCAR-5, 48 h, read-out: Activity

| Structure (SMILES) | growth at 0.1 µM [%] |
| --- | --- |
| CNC(=O)c1cc(Oc2ccc3nc(NC(=O)Nc4ccc(Cl)c(C(F)(F)F)c4)sc3c2)ccn1 | 95 |

Tested on: not listed separately
Assay: Antiproliferative activity against human NCI-ADR-RES cells assessed as cell growth at 10^-8 M after 48 hrs by sulforhodamine B assay
Format: functional
Conditions: read-out: Activity

| Structure (SMILES) | growth at 0.01 µM [%] |
| --- | --- |
| CNC(=O)c1cc(Oc2ccc3nc(NC(=O)Nc4ccc(Cl)c(C(F)(F)F)c4)sc3c2)ccn1 | 110 |

Tested on: NCI-H322M
Assay: Antiproliferative activity against human NCI-H322M cells assessed as cell growth at 10^-7 M after 48 hrs by sulforhodamine B assay
Format: functional
Conditions: read-out: Activity

| Structure (SMILES) | growth at 0.1 µM [%] |
| --- | --- |
| CNC(=O)c1cc(Oc2ccc3nc(NC(=O)Nc4ccc(Cl)c(C(F)(F)F)c4)sc3c2)ccn1 | 103 |

Tested on: KM12
Assay: Antiproliferative activity against human KM12 cells assessed as cell growth at 10^-6 M after 48 hrs by sulforhodamine B assay
Format: functional
Conditions: KM12, 48 h, read-out: Activity

| Structure (SMILES) | growth at 1 µM [%] |
| --- | --- |
| CNC(=O)c1cc(Oc2ccc3nc(NC(=O)Nc4ccc(Cl)c(C(F)(F)F)c4)sc3c2)ccn1 | 85 |

Tested on: CCRF-CEM
Assay: Antiproliferative activity against human CCRF-CEM cells assessed as growth inhibition after 48 hrs by sulforhodamine B assay
Format: functional
Conditions: not given

| Structure (SMILES) | TGI [µM] |
| --- | --- |
| CNC(=O)c1cc(Oc2ccc3nc(NC(=O)Nc4ccc(Cl)c(C(F)(F)F)c4)sc3c2)ccn1 | > 100 |

Same assay, conditions: read-out: LC50 (the source's name)

| Structure (SMILES) | CC50 [µM] |
| --- | --- |
| CNC(=O)c1cc(Oc2ccc3nc(NC(=O)Nc4ccc(Cl)c(C(F)(F)F)c4)sc3c2)ccn1 | > 100 |

Tested on: ACHN
Assay: Antiproliferative activity against human ACHN cells assessed as cell growth at 10^-8 M after 48 hrs by sulforhodamine B assay
Format: functional
Conditions: read-out: Activity

| Structure (SMILES) | growth at 0.01 µM [%] |
| --- | --- |
| CNC(=O)c1cc(Oc2ccc3nc(NC(=O)Nc4ccc(Cl)c(C(F)(F)F)c4)sc3c2)ccn1 | 97 |

Tested on: not listed separately
Assay: Antiproliferative activity against human NCI-ADR-RES cells assessed as cell growth at 10^-4 M after 48 hrs by sulforhodamine B assay
Format: functional
Conditions: read-out: Activity

| Structure (SMILES) | growth at 100 µM [%] |
| --- | --- |
| CNC(=O)c1cc(Oc2ccc3nc(NC(=O)Nc4ccc(Cl)c(C(F)(F)F)c4)sc3c2)ccn1 | 11 |

Tested on: not listed separately
Assay: Antiproliferative activity against human RPMI8226 cells assessed as cell growth at 10^-6 M after 48 hrs by sulforhodamine B assay
Format: functional
Conditions: RPMI-8226, 48 h, read-out: Activity

| Structure (SMILES) | growth at 1 µM [%] |
| --- | --- |
| CNC(=O)c1cc(Oc2ccc3nc(NC(=O)Nc4ccc(Cl)c(C(F)(F)F)c4)sc3c2)ccn1 | 82 |

Tested on: K562
Assay: Antiproliferative activity against human K562 cells assessed as growth inhibition after 48 hrs by sulforhodamine B assay
Format: functional
Conditions: K562, 48 h

| Structure (SMILES) | TGI [µM] |
| --- | --- |
| CNC(=O)c1cc(Oc2ccc3nc(NC(=O)Nc4ccc(Cl)c(C(F)(F)F)c4)sc3c2)ccn1 | > 100 |

Same assay, conditions: K562, 48 h, read-out: LC50 (the source's name)

| Structure (SMILES) | CC50 [µM] |
| --- | --- |
| CNC(=O)c1cc(Oc2ccc3nc(NC(=O)Nc4ccc(Cl)c(C(F)(F)F)c4)sc3c2)ccn1 | > 100 |

Tested on: not listed separately
Assay: Antiproliferative activity against human LOXIMVI cells assessed as cell growth at 10^-8 M after 48 hrs by sulforhodamine B assay
Format: functional
Conditions: LOX IMVI, read-out: Activity

| Structure (SMILES) | growth at 0.01 µM [%] |
| --- | --- |
| CNC(=O)c1cc(Oc2ccc3nc(NC(=O)Nc4ccc(Cl)c(C(F)(F)F)c4)sc3c2)ccn1 | 99 |

Source: ChEMBL document CHEMBL3797052 (Eur J Med Chem, 2016)
